Data on five compounds can be found in patent US7329664B2, “Substituted (7-pyridyl-4-phenylamino-quinazolin-2-yl)-methanol analogues” (Neurogen Corporation, priority 2003, dated 2008).

Assay [1] deals with T1, human capsaicin receptor (Homo sapiens, UniProt Q8NER1).
T1 construct: transfected with the pBK-CMV expression construct encoding the full length human capsaicin receptor; expressed in transfected cells
Briefly: Calcium mobilization assay, capsaicin receptor antagonist activity (Example 6). Type of assay: cell-based. As to conditions: read-out: IC50 in standard assay of capsaicin receptor activity. Here is the method: Human embryonic kidney (HEK293) cells were transfected with the pBK-CMV expression construct encoding the full length human capsaicin receptor using standard methods. The transfected cells were selected for two weeks in media containing G418 (400 μg/ml) to obtain a pool of stably transfected cells. Independent clones were isolated from this pool by limiting dilution to obtain clonal stable cell lines for use in subsequent experiments.
This Example illustrates representative calcium mobilization assays for use in evaluating test compounds for agonist and antagonist activity.
Cells transfected with expression plasmids (as described in Example 4) and thereby expressing human capsaicin receptor are seeded and grown to 70-90% confluency in FALCON black-walled, clear-bottomed 96-well plates (#3904, BECTON-DICKINSON, Franklin Lakes, N.J.). The culture medium is emptied from the 96 well plates and FLUO-3 AM calcium sensitive dye (Molecular Probes, Eugene, Oreg.) is added to each well (dye solution: 1 mg FLUO-3 AM, 440 μL DMSO and 440 μl 20% pluronic acid in DMSO, diluted 1:250 in Krebs-Ringer HEPES (KRH) buffer (25 mM HEPES, 5 mM KCl, 0.96 mM NaH2PO4, 1 mM MgSO4, 2 mM CaCl2, 5 mM glucose, 1 mM probenecid, pH 7.4), 50 μl diluted solution per well). […] After the incubation, the dye is emptied from the plates, and the cells are washed once with KRH buffer, and resuspended in KRH buffer.
(§1) To measure the ability of a test compound to agonize or antagonize a calcium mobilization response in cells expressing capsaicin receptors to capsaicin or other vanilloid agonist, the EC50 of the agonist capsaicin is first determined. An additional 20 μl of KRH buffer and 1 μl DMSO is added to each well of cells, prepared as described above. 100 μl capsaicin in KRH buffer is automatically transferred by the FLIPR instrument to each well. Capsaicin-induced calcium mobilization is monitored using either FLUOROSKAN ASCENT (Labsystems; Franklin, Mass.) or FLIPR (fluorometric imaging plate reader system; Molecular Devices, Sunnyvale, Calif.) instruments. […] In this equation, y is the maximum fluorescence signal, x is the concentration of the agonist or antagonist (in this case, capsaicin), a is the Emax, b corresponds to the EC50 value and c is the Hill coefficient. […]
Test compounds are dissolved in DMSO, diluted in 20 μl KRH buffer so that the final concentration of test compounds in the assay well is between 1 μM and 5 μM, and added to cells prepared as described above. […] Just prior to determining the fluorescence response, 100 μl capsaicin in KRH buffer at twice the EC50 concentration determined as described above is automatically added by the FLIPR instrument to each well of the 96 well plate for a final sample volume of 200 μl and a final capsaicin concentration equal to the EC50. […]
(Calcium flux is commonly read through the fluorescence of an indicator in the cells.)

The target in assay [2] is T1, human capsaicin receptor. As to the kind of experiment: Calcium mobilization assay, agonist response to capsaicin (Example 6). Conditions: cells expressing human capsaicin receptor, positive control; read-out: approximate EC90 concentration. Type of assay: cell-based. Here is the method:
Cells transfected with expression plasmids (as described in Example 4) and thereby expressing human capsaicin receptor are seeded and grown to 70-90% confluency in FALCON black-walled, clear-bottomed 96-well plates (#3904, BECTON-DICKINSON, Franklin Lakes, N.J.). The culture medium is emptied from the 96 well plates and FLUO-3 AM calcium sensitive dye (Molecular Probes, Eugene, Oreg.) is added to each well (dye solution: 1 mg FLUO-3 AM, 440 μL DMSO and 440 μl 20% pluronic acid in DMSO, diluted 1:250 in Krebs-Ringer HEPES (KRH) buffer (25 mM HEPES, 5 mM KCl, 0.96 mM NaH2PO4, 1 mM MgSO4, 2 mM CaCl2, 5 mM glucose, 1 mM probenecid, pH 7.4), 50 μl diluted solution per well). […]
as §1, with “An additional 20 μl of KRH buffer and 1 μl DMSO is added to each well of cells, prepared as described above. 100 μl capsaicin in KRH buffer is automatically transferred by the FLIPR instrument to each well.” left out

SMILES strings stand for the structures. Bounds are passed on as bounds.

T1 sequence (Q8NER1 whole entry): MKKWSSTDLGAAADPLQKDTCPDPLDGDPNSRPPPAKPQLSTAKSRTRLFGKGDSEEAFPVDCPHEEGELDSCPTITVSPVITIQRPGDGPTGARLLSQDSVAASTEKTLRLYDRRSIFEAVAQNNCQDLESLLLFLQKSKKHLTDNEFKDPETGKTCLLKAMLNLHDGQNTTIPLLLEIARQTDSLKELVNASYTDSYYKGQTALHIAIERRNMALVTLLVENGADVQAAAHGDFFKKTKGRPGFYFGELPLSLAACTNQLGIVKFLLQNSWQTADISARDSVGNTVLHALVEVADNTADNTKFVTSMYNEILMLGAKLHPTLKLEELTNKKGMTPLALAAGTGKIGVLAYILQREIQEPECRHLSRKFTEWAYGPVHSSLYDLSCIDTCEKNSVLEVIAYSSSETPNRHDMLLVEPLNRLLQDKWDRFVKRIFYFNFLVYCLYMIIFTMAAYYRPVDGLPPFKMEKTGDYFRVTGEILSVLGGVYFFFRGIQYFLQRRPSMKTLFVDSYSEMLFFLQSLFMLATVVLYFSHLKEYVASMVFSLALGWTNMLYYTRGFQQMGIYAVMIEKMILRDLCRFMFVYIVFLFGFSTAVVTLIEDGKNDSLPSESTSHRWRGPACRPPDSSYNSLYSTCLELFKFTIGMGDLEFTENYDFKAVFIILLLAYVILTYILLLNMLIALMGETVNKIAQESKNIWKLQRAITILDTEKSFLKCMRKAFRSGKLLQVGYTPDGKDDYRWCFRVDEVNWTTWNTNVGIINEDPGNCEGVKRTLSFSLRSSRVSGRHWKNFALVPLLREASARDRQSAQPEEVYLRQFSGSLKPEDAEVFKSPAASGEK

Consider `COCc1nc(Nc2ccc(C(F)(F)F)cc2)c2ccc(-c3ncccc3C)cc2n1` [Compound 3, [2-Methoxymethyl-7-(3-methylpyridin-2-yl)-quinazolin-4-yl)-(4-trifluoromethylphenyl)-amine], for which the half-inhibitory concentration (IC50) in assay [1] was less than 0.01 µM.

With `COc1cc(CNC(=O)CCCC/C=C/C(C)C)ccc1O` [capsaicin], the EC90 in assay [2] is roughly 0.1 µM.

Consider `COCc1nc(Nc2ccc(C(F)(F)F)cn2)c2ccc(-c3ncccc3C(F)(F)F)nc2n1` [Compound 133, [2-Methoxymethyl-7-(3-trifluoromethyl-pyridin-2-yl)-pyrido[2,3-d]pyrimidin-4-yl]-(5-trifluoromethy1-pyridin-2-yl)-amine], for which the IC50 in assay [1] is less than 0.01 µM.

As to `CC(C)COCc1nc(Nc2ccc(C(F)(F)F)cn2)c2ccc(-c3ncccc3C(F)(F)F)nc2n1` [Compound 132, [2-lsobutoxymethyl-7-(3-trifluoromethyl-pyridin-2-yl)-pyrido[2,3-d]pyrimidin-4-yl]-(5-trifluoromethyl-pyridin-2-yl)-amine], the concentration for half-maximal inhibition (IC50) in assay [1] was less than 0.01 µM.

On to `COCc1nc(Nc2ccc(C(F)(F)F)cc2)c2ccc(-c3ncccc3Cl)nc2n1` [Compound 2, [7-(3-Chloro-pyridin-2-yl)-2-methoxymethyl-pyrido[2,3-d]pyrimidin-4-yl]-(4-trifluoromethyl-phenyl)-amine], for which the half-maximal inhibitory concentration (IC50) in assay [1] was less than 0.01 µM.

By IC50 is commonly meant the midpoint of a concentration-inhibition curve.
